One data set concerns Diamondback moth. Put plainly: Insecticidal effect on diamondback moth (cabbage leaf disc dip test). The format is in vivo. The note with it: for Insecticidal Effect (%) Diamondback moth (1 mg/L): leaf disc immersed 10 seconds, larvae, mortality; for mortality at 1 µg/mL: Plutella xylostella, foliar, 72 h, concentration of 1 mg/L, 3 days. The protocol:
(§1) The compound to be tested dissolved in acetone and 1‰ Tween-80 solution, and was formulated to 50 ml of the test solution with desired concentration. The cabbage leaves having been cleaned and dried were made into leaf disc with diameter of 1 cm with hole puncher. The leaf disc were immersed in the drug liquid for 10 seconds and then removed, dried naturally, loaded in the culture dish. 10 […] diamondback moth larvae were introduced per dish and repeated for three times. After the treatment, the dishes were placed into a room with temperature of 20° C., relative humidity of 60-70% and without illumination to take an indoor culture. The survival of insects was surveyed and the mortality was calculated.

The next data set concerns pink stem borer. The data set is described as follows: Insecticidal effect on pink stem borer (method of Test Example 1). Format: in vivo. Particulars: for Insecticidal Effect (%) pink stem borer (2 mg/L): leaf disc immersed 10 seconds, mortality. The protocol:
[The procedure below names another organism; the source lists this organism under the same test.] as §1

Take `Cc1cc(Cl)cc(C#N)c1NC(=O)c1cc(Br)nn1-c1ncccc1Cl` [Compound I-1]: the “Insecticidal Effect (%) Diamondback moth (1 mg/L)” value with Diamondback moth is on record as 50%. In the data set with pink stem borer, the “Insecticidal Effect (%) pink stem borer (2 mg/L)” value amounted to 40%.

As to `Cc1cc(Cl)cc(C#N)c1NC(=O)c1cc(Br)nn1-c1ncc(Cl)cc1Cl` [Compound I-2], the “Insecticidal Effect (%) Diamondback moth (1 mg/L)” value with Diamondback moth worked out at 80%. Further, the “Insecticidal Effect (%) pink stem borer (2 mg/L)” value with pink stem borer stood at 50%.

As for `Cc1cc(Cl)cc(C#N)c1NC(=O)c1cc(Br)nn1-c1ncc(Cl)cc1F` [Compound I-3], in the data set on Diamondback moth, the “Insecticidal Effect (%) Diamondback moth (1 mg/L)” value was 100% and the mortality at 1 µg/mL turned out to be 100%. Moreover, in the data set with pink stem borer, the “Insecticidal Effect (%) pink stem borer (2 mg/L)” value is on record as 85%.

Consider `N#Cc1cc(Cl)cc(Cl)c1NC(=O)c1cc(Br)nn1-c1ncccc1Cl` [Compound I-4], for which, in the data set on Diamondback moth, the “Insecticidal Effect (%) Diamondback moth (1 mg/L)” value was found to be 100% and the mortality at 1 µg/mL stood at 100%. Also, the “Insecticidal Effect (%) pink stem borer (2 mg/L)” value in the data set on pink stem borer stood at 98%. Further, the “mortality to pink stem borer in 3 days” value in the data set on pink stem borer (concentration of 2 mg/L, 3 days) turned out to be 98%.

In the case of `N#Cc1cc(Cl)cc(Cl)c1NC(=O)c1cc(Br)nn1-c1ncc(Cl)cc1Cl` [Compound I-5], in the data set with Diamondback moth, the “Insecticidal Effect (%) Diamondback moth (1 mg/L)” value came to 100% and the mortality at 1 µg/mL is 100%. Also, the “Insecticidal Effect (%) pink stem borer (2 mg/L)” value in the data set on pink stem borer turned out to be 70%.

`N#Cc1cc(Cl)cc(Cl)c1NC(=O)c1cc(Br)nn1-c1ncc(Cl)cc1F` [Compound I-6]: in the data set on Diamondback moth, the “Insecticidal Effect (%) Diamondback moth (1 mg/L)” value came out at 100% and the mortality at 1 µg/mL is 100%. For the same molecule, the “Insecticidal Effect (%) pink stem borer (2 mg/L)” value in the data set with pink stem borer is given as 90%.

For `Cc1cc(Cl)cc(C#N)c1NC(=O)c1cc(Br)nn1-c1ncc(C(F)(F)F)cc1Cl` [Compound I-7], in the data set with Diamondback moth, the “Insecticidal Effect (%) Diamondback moth (1 mg/L)” value came out at 90%. In addition, the “Insecticidal Effect (%) pink stem borer (2 mg/L)” value with pink stem borer was 80%.

One may read the mortality as the percentage killed. The low end stands for a weak lethal effect, the high end for a strong lethal effect.
